This is an account of results in publication PMC12596218 (Journal of Lipid Research, 2025).

Values joined by “and” are separate entries in the source; they are usually repeats but may differ in a detail not shown here. Identical values can stand only once.

In assay [1] the target is T1, SOAT (Homo sapiens, UniProt Q3KNW5).
T1 construct: stably transfected with the full open reading frames of human NTCP, ASBT, SOAT, OATP1B1, OATP1B3, OATP2B1, and murine Asbt (mAsbt); expressed in transfected cells; host or cells: HEK293 (Flp-In), stably transfected, tetracycline-induced
T1 sequence (Q3KNW5 1-377): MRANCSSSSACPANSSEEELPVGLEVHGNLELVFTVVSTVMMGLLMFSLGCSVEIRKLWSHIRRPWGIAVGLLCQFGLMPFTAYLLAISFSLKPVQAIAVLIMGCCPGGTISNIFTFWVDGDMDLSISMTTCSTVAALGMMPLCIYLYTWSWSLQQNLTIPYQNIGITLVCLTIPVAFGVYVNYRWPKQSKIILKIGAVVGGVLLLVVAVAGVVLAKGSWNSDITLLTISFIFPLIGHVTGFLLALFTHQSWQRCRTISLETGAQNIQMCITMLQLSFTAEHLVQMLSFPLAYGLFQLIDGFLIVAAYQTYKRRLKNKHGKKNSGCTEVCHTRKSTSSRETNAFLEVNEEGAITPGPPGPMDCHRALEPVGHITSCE
Briefly: [3H]DHEAS transport inhibition assay in SOAT-HEK293 cells. The note with it: 1 μM [3H]DHEAS; for IC50: 10 min, SOAT-HEK293, two independent experiments. The format is cell-based. The source says: (§1) Human embryonic kidney HEK293 cells, stably transfected with the full open reading frames of human NTCP, ASBT, SOAT, OATP1B1, OATP1B3, OATP2B1, and murine Asbt (mAsbt) were used as reported ([18], [20], [21], [22], [23]). The NTCP, ASBT, and mAsbt constructs were C-terminally tagged with the FLAG epitope, and the SOAT construct was C-terminally tagged with green fluorescent protein. Non-transfected Flp-In HEK293 cells (Thermo Fisher Scientific) served as the control. All cell lines were maintained at 37°C, 5% CO2 and 95% humidity in DMEM/F-12 medium (Thermo Fisher Scientific) supplemented with 10% fetal calf serum (Sigma-Aldrich), 4 mM L-glutamine (PAA) and penicillin/streptomycin (PAA). Expression of the respective carrier protein was induced by tetracycline treatment at 1 μg/ml (Carl Roth GmbH + Co. KG).
(§2) Cells were seeded onto poly-L-lysine-coated 96-well plates, induced with 1 μg/ml tetracycline, and grown to confluence over 72 h at 37°C. Then, cells were washed with tempered (37°C) phosphate-buffered saline (PBS, containing 137.0 mM NaCl, 2.7 mM KCl, 1.5 mM KH2PO4, and 7.3 mM Na2HPO4, at pH 7.4) and preincubated with 80 μl sodium transport buffer (STB, containing 142.9 mM NaCl, 4.7 mM KCl, 1.2 mM MgSO4, 1.2 mM KH2PO4, 1.8 mM CaCl2, and 20.0 mM HEPES, at pH 7.4) for 5 min at 37°C. For inhibition studies, the medium was replaced by 80 μl STB containing the respective inhibitor or solvent alone and cells were further incubated for 5 min at 37°C. Transport experiments were started by adding 20 μl of a 5-fold concentrated substrate solution (solved in STB). For transport experiments under sodium-free conditions the same buffer composition was used as for STB, but sodium chloride was substituted with equimolar concentrations of choline chloride as previously reported ([20], [24]). Transport experiments were stopped by washing twice with ice-cold PBS and the plates were kept cool on ice until adding the lysis buffer [1% sodium dodecyl sulfate (SDS) and 1 N NaOH]. Then, the cell-associated radioactivity of the respective tritium-labeled substrate or ligand was quantified by liquid scintillation counting using MicroScint-20 scintillation cocktail (Revvity) in a Packard Microplate Scintillation Counter TopCount NXT (Packard Instrument Company). For IC50 transport inhibition measurements, the mean uptake values measured in non-carrier-expressing HEK293 control cells were defined as 0% uptake control and were subtracted from all other values. Values from cells without inhibitor and solvent alone were set to 100%. Finally, all net transport data were expressed as uptake or binding as % of control. All transport or inhibition graphs were generated with GraphPad Prism 6 (GraphPad). Determination of half maximal inhibitory concentrations (IC50) was done by nonlinear regression analysis using the equation log (inhibitor) versus response—variable slope settings. All data points of the IC50 curves represent means ± SD of quadruplicate determinations. For Km measurements, BS uptake in the absence of sodium was regarded as carrier-independent unspecific uptake and was subtracted from the transport rates in the presence of sodium to obtain carrier-specific uptake rates (indicated as dashed lines). From the specific uptake rates, Michaelis Menten Km values were calculated by non-linear regression analysis.

Assay [2] has as its target T2, OATP1B1 (Homo sapiens, UniProt Q9Y6L6).
T2 construct: stably transfected with the full open reading frames of human NTCP, ASBT, SOAT, OATP1B1, OATP1B3, OATP2B1, and murine Asbt (mAsbt); expressed in transfected cells; host or cells: HEK293, stably transfected (OATP1B1-HEK), tetracycline-induced
T2 sequence (Q9Y6L6 1-691): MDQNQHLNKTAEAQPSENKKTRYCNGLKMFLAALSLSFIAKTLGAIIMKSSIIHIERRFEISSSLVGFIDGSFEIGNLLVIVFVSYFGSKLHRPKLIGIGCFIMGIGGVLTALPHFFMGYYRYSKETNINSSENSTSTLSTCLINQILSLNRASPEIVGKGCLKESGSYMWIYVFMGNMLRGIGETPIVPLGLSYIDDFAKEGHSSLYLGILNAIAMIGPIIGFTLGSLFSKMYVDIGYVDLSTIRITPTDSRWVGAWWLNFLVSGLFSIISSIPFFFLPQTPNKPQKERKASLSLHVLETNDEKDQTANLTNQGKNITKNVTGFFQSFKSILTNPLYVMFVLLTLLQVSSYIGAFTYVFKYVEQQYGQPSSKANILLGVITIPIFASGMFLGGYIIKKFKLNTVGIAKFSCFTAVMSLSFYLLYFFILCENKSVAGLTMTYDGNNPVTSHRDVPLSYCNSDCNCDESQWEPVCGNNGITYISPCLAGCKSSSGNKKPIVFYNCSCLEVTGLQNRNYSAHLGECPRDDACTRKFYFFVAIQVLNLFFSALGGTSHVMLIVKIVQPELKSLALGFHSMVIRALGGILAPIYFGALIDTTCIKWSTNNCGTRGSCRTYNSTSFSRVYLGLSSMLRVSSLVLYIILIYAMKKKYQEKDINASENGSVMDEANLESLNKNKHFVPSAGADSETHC
Nature of the assay: [3H]E1S transport inhibition assay in OATP1B1-HEK293 cells. The assay is classed as cell-based. The note with it: 200 nM [3H]E1S, 10 min; two independent experiments.
Excerpt: as §1, §2

With `CCCCC1(CCCC)CS(=O)(=O)c2ccc(N(C)C)cc2[C@@H](c2ccc(OCCCC[N+]34CCN(CC3)CC4)cc2)[C@H]1O` [SC-435], the 50% inhibitory concentration (IC50) in assay [1] was 8.6 µM and 13.5 µM; in assay [2] it was > 10 µM and 41.3 µM and 30.7 µM.
Turning to `CCCCC1(CCCC)CN(c2ccccc2)c2cc(SC)c(OCC(=O)N[C@@H](C(=O)NCC(=O)O)c3ccccc3)cc2S(=O)(=O)C1` [elobixibat], the IC50 is 3.2 µM and 3.3 µM in assay [1]; 4.5 µM and 4.4 µM in assay [2].
Turning to `CCCC[C@]1(CC)CS(=O)(=O)c2cc(CNC(CC(=O)O)CC(=O)O)c(OC)cc2[C@@H](c2ccccc2)N1` [linerixibat], the “SOAT inhibition (in words)” value in assay [1] (inhibitor up to 100 μM) was “failed to significantly inhibit SOAT”. The IC50 in assay [2] was > 10 µM and 29.1 µM and 12 µM.
As to `CCCCC1(CCCC)CS(=O)(=O)c2ccc(N(C)C)cc2[C@@H](c2ccc(OCc3ccc(C[N+]45CCN(CC4)CC5)cc3)cc2)[C@H]1O` [maralixibat], the IC50 is 4.5 µM and 5.9 µM in assay [1]; 9 µM and 8.3 µM in assay [2].
For `CCCCC1(CCCC)CN(c2ccccc2)c2cc(SC)c(OCC(=O)N[C@@H](C(=O)N[C@@H](CC)C(=O)O)c3ccc(O)cc3)cc2S(=O)(=O)N1` [odevixibat], the IC50 is 5.5 µM and 5.6 µM in assay [1]; 4 µM and 1.6 µM in assay [2].
